# Laboratory results: US20220039395A1, “INSECT CONTROL AGENTS” (priority 2018, published 2022)
# “Also recorded” adds a separate entry of the source. Numbered stars: 1 amine (or outer) side, 2 acyl side, 3 side chain; on linkers, the order of the positions; unused ones are H or OH. Peptide text beside a SMILES is read from it. * marks the point of attachment. X1 = Brc1ccc2c(c1)-c1cc(N*)ccc1C2; Suc = O=C(CCC(=O)[*:2])[*:1]
# Legend:
# Myzus persicae = assay: Desiccation/starvation tolerance assay after peptide microinjection; assay type: in vivo; details: for Reduction of LTime50 relative to control / Reduction of median survival relative to control: M. persicae, desiccation/starvation stress; for Documented effect on desiccation/starvation mortality / LTime50 (h), test / Median ± IQR survival (h), test: Myzus persicae, microinjection; for Documented effect on desiccation/starvation mortality: final concentration ×10^−5 M, relative to vehicle control; for LTime50 (h), test / Median ± IQR survival (h), test: ×10^−5 M, desiccation and starvation stress, test group
# Method: (§1) Neuropeptides were administered to test aphids via microinjection to allow for rapid mass screening of neuropeptide analogue efficacy. For this, native neuropeptides were diluted in double distilled water (DDH2O) to a concentration of 1×10^−5 M. Neuropeptide analogues were diluted in DDH2O to the following concentrations: kinin analogues 1728 (2.5×10^−5 M), 2139 (3.5×10^−5 M), 2139-Ac (3.5×10^−5 M); CAP2b analogues 1895 (3.5×10^−5 M), 1896 (3.5×10^−5 M), 1902 (3.5×10^−5 M), 2089 (3.9×10^−5 M), 2123 (1.0×10^−5 M), 2125 (1.0×10^−5 M), 2129 (2.0×10^−5 M). Once at the desired concentration, neuropeptide solutions were administered to test aphids at an injection volume of 9 nl based on total haemolymph volume, to produce an approximate 1:20 dilution of injection volume to haemolymph. Injections were performed using a pulled glass needle and a Nanoject II Auto-Nanoliter Injector (Drummond Scientific Company, Broomall, Pa.). A vehicle control was set up for each treatment/day of experiments to account for variation in needle pulling. For this, control aphids were injected with 9 nl of DDH2O and subsequently exposed to the same experiments as aphids receiving the neuropeptide treatment. Neuropeptide treated and vehicle control aphids were subsequently used in the stress bioassays detailed below.
# (§2) Anholocyclic adults of mixed age of either M. persicae or M. rosae were selected from the stock cultures and treated with a native neuropeptide or neuropeptide analogue via microinjection using the method detailed above. Treated and vehicle control aphids were allowed to recover on excised leaves of the host plant for 1 h before being placed in an empty ventilated microcage (L=4 cm, 0=9.5 cm) at densities of 10 per cage. In total, 30-40 aphids were treated for each neuropeptide treatment group and a further 30-40 for the associated vehicle control group. From the point of placement in the microcage (taken as 0 h), aphid survival was checked every hour during daylight hours and approximately every 4 h during night-time hours until the final aphid died. Survival data were subsequently analysed using a Log-rank (Mantel-Cox) text in GraphPad Prism version 7.0. LTime50 (the time taken to kill 50% of the test population) values were calculated via Probit Analysis in Minitab 17 (Minitab Inc., State College, Pa.).
# Macrosiphum rosae = assay: as above; assay type: in vivo; details: for Reduction of LTime50 relative to control / Reduction of median survival relative to control: M. rosae, desiccation/starvation stress; for Documented effect on desiccation/starvation mortality / LTime50 (h), test / Median IQR survival (h), test: Macrosiphum rosae, microinjection; for Documented effect on desiccation/starvation mortality: final concentration ×10^−5 M, relative to vehicle control; for LTime50 (h), test / Median IQR survival (h), test: ×10^−5 M, desiccation and starvation stress, test group
# Method: as §1, §2
# Aphids = assay: Feeding with peptides in artificial diet, mortality without other stress; assay type: in vivo, Myzus persicae; details: ingestion via artificial diet
# Method: A standard artificial diet for M. persicae was produced as described in Van Emden (2009) and provided the basal diet to which neuropeptide analogues were added for screening purposes. Neuropeptide analogues were diluted individually in the artificial diet to a pre-determined recommended concentration as follows: 1895 (3.5×10^−5 M) and 2019 (2.0×10^−5 M).
# Feeding apparatus were constructed using a set-up developed by Sadeghi et al (2009). For this, a piece of Parafilm was stretched over a Plexiglas ring (h=4 cm, Ø=3 cm) and 100 μl of the artificial diet containing the desired neuropeptide analogue was pipette onto the Parafilm membrane. A second piece of Parafilm, stretched to 4 times the original thickness, was stretched over the original layer, sandwiching the artificial diet between two layers of Parafilm. A strip of Parafilm was wrapped around the circumference of the Plexiglas ring, sealing in the diet. A plastic ring (h=1.2 cm, Ø=3.4 cm) was subsequently placed over the Parafilm layer, creating a walled chamber in which to house test aphids in contact with the Parafilm layer containing the artificial diet. Finally, a small Petri dish (h=1 cm, Ø=3.6 cm), modified for ventilation with net cloth, was placed on top of each feeding apparatus to prevent aphid escape.
# To obtain aphids for use in experiments, reproducing anholocyclic adults were placed on individual excised leaves of Chinese cabbage at densities of 5 adults per leaf and allowed to reproduce for 24 h. The stem of each excised leaf was held within a 0.5 mL Eppendorf tube containing water via a punctured hole in the Eppendorf lid, and placed individually within a microcage (L=4 cm, Ø=9.5 cm). Following 24 h, adults were removed and resultant first instar nymphs (<1 day old and synchronised in age to within 24 h) retained. Nymphs were allowed to develop on the Chinese cabbage for 5 days. On day 5, (3rd instar) nymphs were transferred onto the artificial diet containing a neuropeptide analogue at densities of 1 per feeding chamber and monitored daily until death. Aphids were transferred to fresh artificial diet (containing neuropeptide analogue) every 5 days. Life history traits recorded include age at first reproduction, number of nymphs produced per 24 h period, and lifespan. From these parameters, lifetime fecundity and daily fecundity were calculated. Control groups were set up involving aphids reared on the host plant, an artificial diet without a neuropeptide analogue, and an artificial diet containing the native CAPA neuropeptide.
# Aphids were reared on artificial diet, alone or supplemented with peptide 2129, 2315, 2316 or 2320. A control group (no test peptide) was reared on a host plant. No other stress conditions were applied.
# For peptides 2315, 2316 and 2320, mortality was assessed at 48, 72, 96, 120 and 144 hours. A group of 9 or 10 insects was used for each time point, and all experiments were performed at least 4 times.
Compound,Reduction of LTime50 relative to control (Myzus persicae) [h],Reduction of median survival relative to control (Myzus persicae) [h],Documented effect on desiccation/starvation mortality (Myzus persicae),"LTime50 (h), test (Myzus persicae)","Median ± IQR survival (h), test (Myzus persicae)",Reduction of LTime50 relative to control (Macrosiphum rosae) [h],Reduction of median survival relative to control (Macrosiphum rosae) [h],Documented effect on desiccation/starvation mortality (Macrosiphum rosae),"LTime50 (h), test (Macrosiphum rosae)","Median IQR survival (h), test (Macrosiphum rosae)",change in mortality relative to the control (Aphids; after 24 h) [%],percentage survival (Aphids; after 24 h) [%],effect on aphid longevity (Aphids; after the first 24 h)
"CC[C@H](C)[C@H](NC(=O)[C@H](CCCNC(=N)N)NC(=O)[C@@H]1CCCN1C(=O)[C@@H](NC(=O)[C@H](C)NC(=O)CCC(=O)Nc1ccc2c(c1)-c1cc(Br)ccc1C2)[C@@H](C)O)C(N)=O [compound 2129, 2Abf-Suc-ATPRI-NH2] ({X1-Suc}-ATPRI-NH2)",7.1,9.8,significantly increase mortality relative to the control; also recorded: significantly increased desiccation/starvation mortality; also recorded: Increases,15.9 | 8.8 h,17.8 ± 12.0 | 8.0 ± 17.0 h,11.6,12.8,significantly increase mortality relative to the control; also recorded: significantly increased desiccation/starvation mortality; also recorded: Increases,24.3 | 12.7 h,23.8 ± 20.5 | 11.0 ± 13.0 h,19.7,73.8,highly significant reduction in aphid longevity
2Abf-Suc-FGPRL-NH2 [compound 1895],3.5,4.0,significantly increase mortality relative to the control; also recorded: significantly increased desiccation/starvation mortality; also recorded: Increases,15.9 | 12.4 h,17.8 ± 12.0 | 13.8 ± 11.8 h,9.6,10.5,significantly increase mortality relative to the control; also recorded: significantly increased desiccation/starvation mortality; also recorded: Increases,18.7 | 9.1 h,17.5 ± 19.5 | 7.0 ± 12.5 h,,,
